# “Also recorded” adds a separate entry of the source. Where no end group is shown, it is not given here. [ ]: non-standard residue; d: D form. IASA = not defined here; Dap = NC[C@H](N)C(=O)O
# Legend:
# Assay type in all cases: binding, human
# HLA-A1 [1] = assay: HLA-A1 photoaffinity labelling of HLA-A1 transfected C1R cells with radioiodinated peptide derivative; conditions: β2-microglobulin, 26° C., UV irradiation, SDS-PAGE
# Description: (§1) All photoaffinity labelling procedures were performed essentially as described by Luescher et al., J. Immunol., 148:1003-011 (1992); Luescher et al., Nature, 351:72-74 (1991); Romero et al., J. Exp. Med., 177:1247-1256 (1993); Luescher et al., J. Biol. Chem., 269:5574-5592 (1994); and Romero et al., J. Immunol. Methods, 171:73-84 (1994). Briefly, HLA-A1 transfected C1R cells, cultured in hygromycin containing medium, or other cell types were resuspended in DMEM medium supplemented with 0.5% fetal calf serum, 10 mM HEPES and 0.25 μg/ml human β2-microglobulin, or as specified, at 6 ×10^6 cells/ml. One ml aliquotes were incubated in 6-well plates with 20 ×10^6 cpm of peptide derivative at 26° C. for 4 hours or as specified.
# (§2) After UV irradiation with a 15 W mercury fluorescence lamp with an emission maximum at 365 nm and a band width of 80 nm for 4 minutes at a lamp-sample distance of 2 cm, the cells were washed 4 times with DMEM containing 2% calf serum and 1 time with PBS. The washed cells were lysed and boiled in reducing sample buffer supplemented with MgCl2 and subjected to SDS-PAGE. Alternatively the UV irradiated samples were lysed with NP-40 detergent (0.7%) on ice in the presence of HEPES (50 mM), leupeptin (10 μg/ml), PMSF (0.1 mM), and iodoacetamide (10 MM). Immunoprecipitation of HLA molecules with immobilized W6/32 mAb (Brodsky et al., J. Immunol., 128:129-135 (1982) and SDS-PAGE analysis of the immunoprecipitate were performed as described by Luescher et al., Electrophoresis, 8:508 (1987). The gels were evaluated by autoradiography and in some experiments by densitometry as described by Luescher et al., J. Immunol., 148:1003-1011 (1992). Each labelling experiment was performed at least twice.
# To perform competition assays, ^51 Cr labelled C1R HLA-A1 transfected cells were incubated in the presence of a suboptimal concentration of the MAGE-3 peptide 168-176 with cloned HLA-A1-restricted MAGE-3-specific CTL 20/38. […] Alternatively, the radioiodinated peptide derivatives were incubated with HLA-A1 transfected C1R cells and following UV irradiation, the lysates of the washed cells were analyzed by SDS-PAGE (10%, reducing conditions).
# Following incubation of these cells with the radioiodinated peptide derivatives and UV irradiation, cell lysates were analyzed by SDS-PAGE (FIG. 4B).
# HLA class I molecules [2] = assay: Photoaffinity labelling of a panel of cell lines expressing different HLA class I molecules; conditions: for photoaffinity labelling of 45 kDa HLA heavy chain on LG2-EBV cells: lane 11
# Description: as §1, §2
# The first 9 were HLA homozygous EBV transformed cells lines that have been described at the 10th International Histocompatibility Workshop (DuPont, Immunobiology of HLA, New York, Springer-Verlag, Vol. 1 (1987)). Workshop numbers are indicated as "ws#", and their HLA-C expression has been determined by PCR (Levine et al., Tissue Antigens, 44:174 (1994)). The heterozygous EBV transformed cell lines were derived from HLA-typed individuals. In the case of HLA-C, the serological typing was incomplete, as indicated by question marks. The remaining cell line was COS-7 cell transfected with HLA-Cw*1601. These cells were subjected to the same labelling procedure as described for FIG. 4B.
# HLA class I molecules [3] = assay: as above; conditions: COS-7 transfectant
# HLA-A1 [4] = assay: Dissociation of HLA-A1 peptide derivative complexes on C1R/A1 cells; conditions: physiological conditions (37° C., no exogenous β2-microglobulin), after 6 hours
# Description: FIG. 3 is comprised of FIG. 3A, FIG. 3B and FIG. 3C. FIG. 3A represents SDS-PAGE analysis of EADPTGDap(IASA)SY incubated with C1R/A1 cells or WT51 cells in the presence of β2-microglobulin. FIG. 3B represents SDS-PAGE where incubation was performed at 37° C. or 26° C. in the absence of presence of β2-microglobulin, and the autoradiograms were evaluated by densitometry.
# This considerable increase is mainly accounted for by an accordingly less efficient peptide binding under physiological conditions (i.e., 37° C. and no exogenous β2-microglobulin) . Another difference between the human and murine system is the difference in the stability of MHC class 1-peptide complexes. On C1R/A1 cells, the dissociation of HLA-A1 peptide derivative complexes under physiological conditions was remarkably slow, and even after 6 hours of incubation less than 20% dissociation took place (FIG. 3C). Similarly slow dissociations have been reported for other HLA class I molecules (DiBrino et al., J. Immunol., 152:620-631 (1994); Tsomides et al., Proc. Natl. Acad. Sci. USA, 88:11276 (1991)). In contrast, in the murine system, i.e., the Kd, Db of Ld system, under these conditions rapid dissociations with halftimes in the range of one hour have been reported (Luescher et al., Nature, 351:72-74 (1991); Luescher et al., J. Biol. Chem., 269:5574-5582 (1994); Romero et al., 1994, supra).
# HLA-A29 = assay: Inhibition of HLA-A29 photoaffinity labelling on 807-02 cells by competitor peptides; conditions: for inhibition of HLA-A29 photoaffinity labelling (HLA-A29 competitor activity / binding): 20-fold molar excess of competitor, FIG. 6B
# Description: as §1, §2
# After UV irradiation, the cells were lysed and the immunoprecipitated HLA molecules were analyzed by SDS-PAGE and the resulting autoradiograms were evaluated by densitometry. All experiments were performed at least in triplicate. Hundred percent labelling refers to the labelling observed in the absence of a competitor peptide (FIG. 6A).
# HLA-A1 [5] = assay: Inhibition of HLA-A1 photoaffinity labelling on C1R/A1 cells by competitor peptides; conditions: for binding of MAGE-3 peptide variants to HLA-A1: single alanine substitutions, method not stated
# [6] = labelling with Dap(IASA)-ADPTGHSY on C1R HLA-A1 transfectants, 100-fold molar excess of competitor, densitometry
substance,measurement,setting,value
Dap(IASA)-ADPTGHSY ([Dap](IASA)ADPTGHSY; reading uncertain),HLA-A1 photoaffinity labelling (45 kDa HLA-A1 heavy chain),HLA-A1 [1],efficiently bound to and photoaffinity labelled HLA-A1
same,HLA-A1 photoaffinity labelling (45 kDa HLA-A1 heavy chain),HLA-A1 [1]; listed as derivative containing Dap(IASA) in position 1,efficiently labelled
same,HLA labelling on 806-04 cells,HLA class I molecules [2]; 806-04 (HLA-A29+),similarly efficient HLA labelling
same,photoaffinity labelling of 45 kDa HLA heavy chain on 807-02 cells,"HLA class I molecules [2]; 807-02 (HLA-A29+), lane 15",significant photoaffinity labelling; also recorded: similarly efficient HLA labelling
same,photoaffinity labelling of 45 kDa HLA heavy chain on BM21 cells,"HLA class I molecules [2]; EBV transformed line BM21 (HLA-A1), lane 1",significant photoaffinity labelling
same,photoaffinity labelling of 45 kDa HLA heavy chain on MOU cells,"HLA class I molecules [2]; EBV transformed line MOU (HLA-A*2902, HLA-B*4403), lane 4",significant photoaffinity labelling
same,photoaffinity labelling of 45 kDa HLA heavy chain on LG2-EBV cells,HLA class I molecules [2],significant photoaffinity labelling
same,photoaffinity labelling of 45 kDa HLA heavy chain on LG2-EBV cells,HLA class I molecules [2]; listed as SEQ ID NO: 8,weak labelling
same,photoaffinity labelling of 45 kDa material on the other lines tested,"HLA class I molecules [2]; lanes 2, 3, 5-10, 12-14",not detectable
same,HLA labelling on COS-7 cells transfected with HLA-A1,HLA class I molecules [3],displayed HLA labelling
same,HLA labelling on COS-7 cells transfected with HLA-A29,HLA class I molecules [3],displayed HLA labelling
"Glu Ala Asp Pro Thr Gly Dap(IASA) Ser Tyr (EADPTG[Dap](IASA)SY; reading uncertain; also: radioiodinated, printed as Glu Ala Asp Pro Thr Gly Dap(IASA) Ser Tyr) [SEQ ID NO: 1]",HLA-A1 photoaffinity labelling (45 kDa HLA-A1 heavy chain),HLA-A1 [1],corresponds to the HLA-A1 heavy chain
same,HLA-A1 photoaffinity labelling (45 kDa HLA-A1 heavy chain),HLA-A1 [1]; listed as derivative containing Dap(IASA) in position 7,efficiently labelled
same,HLA labelling on eight other EBV cell lines,"HLA class I molecules [2]; eight other EBV cell lines expressing different HLA-A, B and C molecules",Equally negative
same,HLA labelling on TEM cells,"HLA class I molecules [2]; homozygous EBV transformed line TEM, HLA-A26, B-38",No detectable HLA labelling
same,HLA labelling on WT51 cells,"HLA class I molecules [2]; homozygous EBV transformed line WT51, HLA-A23, B65",No detectable HLA labelling
same,dissociation of HLA-A1 peptide derivative complexes,HLA-A1 [4],less than 20%
"MAGE-3 variant Tyr-176 replaced with phenylalanine: MAGE-3 peptide 168-176 with C-terminal tyrosine replaced by phenylalanine (EVDPIGHLF; UniProt P43357 168-176, looked up, variant Y176F)",inhibition of HLA-A29 photoaffinity labelling (HLA-A29 competitor activity / binding),HLA-A29,largely preserved the HLA-A29 competitor activity; also recorded: considerably diminishes binding
"MAGE-3 variant alanine substitution of Asp-170: MAGE-3 peptide 168-176 with Asp-170 replaced by alanine (EVAPIGHLY; UniProt P43357 168-176, looked up, variant D170A)",binding of MAGE-3 peptide variants to HLA-A1,HLA-A1 [5],substantially impaired its binding
"MAGE-3 variant alanine substitution of Ile-172: MAGE-3 peptide 168-176 with Ile-172 replaced by alanine (EVDPAGHLY; UniProt P43357 168-176, looked up, variant I172A)",inhibition of HLA-A29 photoaffinity labelling (HLA-A29 competitor activity / binding),HLA-A29,markedly reduced the binding
"MAGE-3 variant alanine substitution of Val-169: MAGE-3 peptide 168-176 with Val-169 (position 2) replaced by alanine (EADPIGHLY; UniProt P43357 168-176, looked up, variant V169A)",inhibition of HLA-A29 photoaffinity labelling (HLA-A29 competitor activity / binding),HLA-A29,to a lesser degree
same,inhibition of HLA-A29 photoaffinity labelling (HLA-A29 competitor activity / binding),HLA-A29; listed as MAGE-3 variant substitution in position 2 with alanine,impaired
"MAGE-3 variant containing Ala in position 9: MAGE-3 peptide 168-176 with Tyr-176 replaced by alanine (EVDPIGHLA; UniProt P43357 168-176, looked up, variant Y176A)",binding of MAGE-3 peptide variants to HLA-A1,HLA-A1 [5],substantially impaired its binding
same,inhibition of HLA-A29 photoaffinity labelling (HLA-A29 competitor activity / binding),HLA-A29,13%
"MAGE-3 variant substitution in position 2 with isoleucine: MAGE-3 peptide 168-176 with position 2 replaced by isoleucine (EIDPIGHLY; UniProt P43357 168-176, looked up, variant V169I)",inhibition of HLA-A29 photoaffinity labelling (HLA-A29 competitor activity / binding),HLA-A29,increased
"MAGE-3 variant substitution in position 2 with phenylalanine: MAGE-3 peptide 168-176 with position 2 replaced by phenylalanine (EFDPIGHLY; UniProt P43357 168-176, looked up, variant V169F)",inhibition of HLA-A29 photoaffinity labelling (HLA-A29 competitor activity / binding),HLA-A29,increased
MAGE-3: HLA-A1 restricted MAGE-3 peptide 168-176,inhibition of HLA-A1 photoaffinity labelling,HLA-A1 [5]; [6],about 98%
same,inhibition of HLA-A1 photoaffinity labelling,"HLA-A1 [5]; labelling with SEQ ID NO: 1 on C1R/A1 cells, 300 fold molar excess of competitor",completely inhibited
same,inhibition of HLA-A29 photoaffinity labelling (HLA-A29 competitor activity / binding),HLA-A29,approximately 80%
"tyrosinase peptide 368-376: HLA-A2-restricted tyrosinase peptide 368-376 (IYMNGTMSQ; UniProt P14679 368-376, looked up, fragment) [reference compound]",inhibition of HLA-A1 photoaffinity labelling,HLA-A1 [5]; [6],No significant inhibition
same,inhibition of HLA-A29 photoaffinity labelling,"HLA-A29; labelling with Dap(IASA)-ADPTGHSY on 807-02 cells, 100-fold molar excess of competitor, densitometry",no detectable inhibition
